Source: PMC9500407, “Quantifying the transport of biologics across intestinal barrier models in real-time by fluorescent imaging” (Frontiers in Bioengineering and Biotechnology, 2022)
Like-named read-outs stand apart in the source and are kept apart here.

Tests used:
[1] = cited from earlier work
Text: page 15: Supplementary Table 4. Comparison of apparent permeability in chips using mono-and coculture tubules and Transwell system of 12 model drugs.

[2] = cited from earlier work; remark: listed apart in the source
Text: page 17: Supplementary Table 5. Direct statistical comparison of drug transport in Transwells, mono-and coculture tubules of 12 model drugs using an unpaired t-test.

[3] = system: Caco-2 monolayers (Transwell); test: Lucifer Yellow leakage after drug exposure, Transwell; settings: 100 µM LY co-applied, after 2 h of exposure to 10 µM drug, Caco-2 Transwell
[4] = system: Caco-2:HT29-MTX E12 coculture tubules (chip); test: Lucifer Yellow leakage after drug exposure, chip coculture; settings: 100 µM LY co-applied, after 2 h of exposure to 10 µM drug
[5] = system: Caco-2 monoculture tubules (chip); test: Lucifer Yellow leakage after drug exposure, chip monoculture; settings: 100 µM LY co-applied, after 2 h of exposure to 10 µM drug
[6] = system: Caco-2 monolayers (Transwell); test: In vitro drug absorption study, Transwell Caco-2 monolayer, Papp by LC-MS; settings: Caco-2 Transwell, 19-21 days culture, apical pH 6.5 / basolateral pH 7.4 (TB, 10 mM HANKS/HBSS), 10 µM drug in 0.1% DMSO, 2 h, 37°C, static, mean ± SEM, at least three biological replicates
[7] = system: Caco-2:HT29-MTX E12 coculture tubules (chip); test: In vitro drug absorption study, OrganoPlate chip coculture tubules, Papp by LC-MS; settings: OrganoPlate Caco-2:HT29-MTX E12 6:1 coculture tubules, day 4, A-B, apical pH 6.5 / basolateral pH 7.4, 10 µM drug in 0.1% DMSO, 2 h, 37°C, constant flow, mean ± SEM, at least three biological replicates
[8] = system: Caco-2 monoculture tubules (chip); test: In vitro drug absorption study, OrganoPlate chip monoculture tubules, Papp by LC-MS; settings: OrganoPlate Caco-2 monoculture tubules, day 4, A-B, apical pH 6.5 / basolateral pH 7.4, 10 µM drug in 0.1% DMSO, 2 h, 37°C, constant flow, mean ± SEM, at least three biological replicates
[9] = system: Caco-2:HT29-MTX E12 coculture tubules; test: Image based analysis of SNAC induced semaglutide transport; assay type: in vitro ADME, human
Text: semaglutide (purple) and FITC-dextran (green). Scale bar is 500 µm. Data represent the mean
of at least two biological replicates per condition.

[10] = human, ref Takenaka et al., 2016
[11] = known route of the drug, no reference given

Effect on cell layer (micrographs) ([9]; 40 mM SNAC)	SMILES	FA in human % (fraction absorbed in human) [1, 10] [%]	Transport route [2, 11]	Lucifer Yellow leakage (%) Transwell [3] [%]	Lucifer Yellow leakage (%) Chip Caco-2:HT29-MTX E12 [4] [%]	Lucifer Yellow leakage (%) Chip Caco-2 [5] [%]	TW Caco-2 Papp (apparent permeability coefficient from A B) [6]	Chip Caco-2:HT29-MTX E12 Papp (apparent permeability coefficient from A B) [7]	Chip Caco-2 Papp (apparent permeability coefficient from A B) [8]	FA in human % (fraction absorbed in human) ([1]; in vivo) [%]	Transport route [2]	FA in human % (fraction absorbed in human) ([1]; human, ref Youhanna and Lauschke, 2021) [%]	Chip Caco-2:HT29-MTX E12 Papp (apparent permeability coefficient from A B) ([7]; listed as Erythromycin) [cm/s]	Effect on cell layer ([9]; SNAC 20 mM or 40 mM with semaglutide-Cy3 5 µM, approx. 4 h, bright field and dextran)
	CNC(=C[N+](=O)[O-])NCCSCc1ccc(CN(C)C)o1 [Rantidine]	50	Paracellular	0.02	0.01	0.02	3.22± 0.93 × 10^-6 cm/sec	2.29 ± 0.27 × 10^-6 cm/sec	1.80± 0.27 × 10^-6 cm/sec					
	CC(C)(C)NCC(O)c1cc(O)cc(O)c1 (centres unmarked) [Terbutaline]			0.02	0.01	0.02	1.85± 0.10 × 10-6 cm/sec	5.09 ± 0.06 × 10-6 cm/sec	7.11± 0.43 × 10-6 cm/sec	44	Paracellular			
	CC(C)NCC(O)COc1cccc2ccccc12 (centres unmarked) [Propranolol]			0.02	0.03	0.03	101.68± 23.00 × 10-6 cm/sec	86.05 ± 21.67 × 10-6 cm/sec	71.42± 5.08 × 10-6 cm/sec					
	COCCc1ccc(OCC(O)CNC(C)C)cc1 (centres unmarked) [Metoprolol]			0.02	0.09	0.02	47.63± 5.44 × 10-6 cm/sec	44.99 ± 1.05 × 10-6 cm/sec	17.67± 4.98 × 10-6 cm/sec					
	CN/C(=N/CCSCc1nc[nH]c1C)NC#N [Cimetidine]	62		0.03	0.02	0.03	5.08± 1.39 × 10^-6 cm/sec	11.87 ± 3.41 × 10^-6 cm/sec	9.79± 3.41 × 10^-6 cm/sec		Paracellular			
	CC(=O)CC(c1ccccc1)c1c(O)c2ccccc2oc1=O (centres unmarked) [Warfarin]			0.02			0.00024341 cm/s	0.00030039 cm/s	160.97± 40.49 × 10-6 cm/sec					
	CC[C@H]1OC(=O)[C@H](C)[C@@H](O[C@H]2C[C@@](C)(OC)[C@@H](O)[C@H](C)O2)[C@H](C)[C@@H](O[C@@H]2O[C@H](C)C[C@H](N(C)C)[C@H]2O)[C@](C)(O)C[C@@H](C)C(=O)[C@H](C)[C@@H](O)[C@]1(C)O [Erythromicin]			0.03	0.01	0.04	1.2e-06 cm/s	0.99 ± 0.32 × 10^-6 cm/sec	1.33e-06 cm/s			35	9.9e-07	
	C=C[C@H]1C[N@@]2CC[C@H]1C[C@@H]2[C@@H](O)c1ccnc2ccc(OC)cc12 [Quinidine]		Transcellular											
partial removal of cell layer	O=C([O-])CCCCCCCNC(=O)c1ccccc1O.[Na+] [SNAC, salcaprozate sodium]													irreversible damage to the cell layer
	NC(=O)N1c2ccccc2C=Cc2ccccc21 [Carbamazepine]			0.02	0.01	0.02	204.43± 9.20 × 10-6 cm/sec	140.04 ± 6.25 × 10-6 cm/sec	0.00021399 cm/s	100	Transcellular			
	CN(C)C(=O)C(CCN1CCC(O)(c2ccc(Cl)cc2)CC1)(c1ccccc1)c1ccccc1 [Loperamide]			0.02	0.02	0.68	58.60± 8.62 × 10^-6 cm/sec	2.75 ± 1.13 × 10^-6 cm/sec	11.03± 1.62 × 10^-6 cm/sec					
